Source: article PMC6001238, “Iterative Chemical Engineering of Vancomycin Leads to Novel Vancomycin Analogs With a High in Vitro Therapeutic Index” (Frontiers in Microbiology, 2018)
Values after ≈ are worked out from the molar mass of the structure shown.

Assays:
[1] = tested on: E. faecalis VSE 1; experiment: MIC, broth microdilution, vancomycin-sensitive E. faecalis (VSE 1); format: cell-based, Enterococcus faecalis; settings: for MIC: Enterococcus faecalis VSE 1 (vancomycin-sensitive), read-out: MIC; for MIC-fold improvement vs. vancomycin: VSE 1, ratio of MIC of vancomycin and MIC of analogue
Summary of the method: (§1)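 MIC values come from broth microdilution run to CLSI susceptibility-testing standards. Ultrapure water and uninoculated broth served as controls. In one series, vancomycin at a final 10 μM was co-dosed with the analogue or comparator antibiotic.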

[2] = tested on: E. faecalis VRE 6; experiment: MIC, broth microdilution, vancomycin-resistant E. faecalis VRE 6 (VanA); format: cell-based, Enterococcus faecalis; settings: for MIC: Enterococcus faecalis VRE 6 (vancomycin-resistant), read-out: MIC; for MIC-fold improvement vs. vancomycin: VRE 6, ratio of MIC of vancomycin and MIC of analogue
Summary of the method: as §1

[3] = tested on: E. faecalis VRE 53; experiment: MIC, broth microdilution, vancomycin-resistant E. faecalis VRE 53 (VanA); format: cell-based, Enterococcus faecalis; settings: for MIC: Enterococcus faecalis VRE 53 (vancomycin-resistant), read-out: MIC; for MIC-fold improvement vs. vancomycin: VRE 53, ratio of MIC of vancomycin and MIC of analogue
Summary of the method: as §1

[4] = tested on: E. faecalis VRE 29; experiment: MIC, broth microdilution, vancomycin-resistant E. faecalis VRE 29 (VanA); format: cell-based, Enterococcus faecalis; settings: for MIC: Enterococcus faecalis VRE 29 (vancomycin-resistant), read-out: MIC; for MIC-fold improvement vs. vancomycin: VRE 29, ratio of MIC of vancomycin and MIC of analogue
Summary of the method: as §1

[5] = tested on: E. faecalis VRE 37; experiment: MIC, broth microdilution, vancomycin-resistant E. faecalis VRE 37 (VanA); format: cell-based, Enterococcus faecalis; settings: for MIC: Enterococcus faecalis VRE 37 (vancomycin-resistant), read-out: MIC
Summary of the method: as §1

[6] = tested on: Murine leukemia (L1210) cells; experiment: Cytostatic activity, L1210 cell proliferation; format: cell-based; settings: mean ± SD of three experiments; highest concentration tested 250 µM; 2 days; read-out: Toxicity (IC50) L1210
Summary of the method: (§2)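 Coulter counter cell counts after 37°C culture with compound; IC50 = concentration giving 50% growth inhibition vs negative control. Incubation: L1210 2 d, CEM 3 d, HeLa 4 d. Suspension density before mixing with an equal volume of dilution: 300,000–500,000 cells/mL.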

[7] = tested on: human T-lymphocyte (CEM) cells; experiment: Cytostatic activity, CEM cell proliferation; format: cell-based; settings: mean ± SD of three experiments; highest concentration tested 250 µM; 3 days; read-out: Toxicity (IC50) CEM
Summary of the method: as §2

[8] = tested on: human cervix carcinoma (HeLa) cells; experiment: Cytostatic activity, HeLa cell proliferation; format: cell-based; settings: mean ± SD of three experiments; highest concentration tested 250 µM; 4 days; read-out: Toxicity (IC50) HeLa
Summary of the method: as §2

[9] = tested on: L1210, CEM and HeLa cell lines; experiment: Cytostatic activity, average or summary over L1210, CEM and HeLa; format: cell-based; settings: average of L1210, CEM and HeLa; read-out: Toxicity (IC50) Average
Summary of the method: as §2

[10] = tested on: S. aureus VSSA (ATCC 6538); experiment: MIC, broth microdilution, vancomycin-sensitive S. aureus (VSSA/MSSA, ATCC 6538); format: cell-based, Staphylococcus aureus; settings: for MIC: Staphylococcus aureus VSSA, read-out: MIC; for MIC-fold improvement vs. vancomycin: VSSA, ratio of MIC of vancomycin and MIC of analogue
Summary of the method: as §1

[11] = tested on: S. aureus VISA/HIP5827; experiment: MIC, broth microdilution, vancomycin-intermediate S. aureus VISA HIP5827; format: cell-based, Staphylococcus aureus; settings: for MIC: Staphylococcus aureus VISA/HIP5827, read-out: MIC; for MIC-fold improvement vs. vancomycin: VISA/HIP5827, ratio of MIC of vancomycin and MIC of analogue
Summary of the method: as §1

[12] = tested on: S. aureus VRSA; experiment: MIC, broth microdilution, vancomycin-resistant S. aureus (VRSA); format: cell-based, Staphylococcus aureus; settings: for MIC: Staphylococcus aureus VRSA, read-out: MIC; for MIC-fold improvement vs. vancomycin: VRSA, ratio of MIC of vancomycin and MIC of analogue
Summary of the method: as §1

[13] = tested on: MRSA KS2; experiment: MIC, broth microdilution, MRSA KS2; format: cell-based, Staphylococcus aureus; settings: for MIC-fold improvement vs. vancomycin: MRSA KS2, ratio of MIC of vancomycin and MIC of analogue; for MIC: Staphylococcus aureus MRSA KS2, read-out: MIC
Summary of the method: as §1

[14] = tested on: MRSA KS6; experiment: MIC, broth microdilution, MRSA KS6; format: cell-based, Staphylococcus aureus; settings: for MIC-fold improvement vs. vancomycin: MRSA KS6, ratio of MIC of vancomycin and MIC of analogue; for MIC: Staphylococcus aureus MRSA KS6, read-out: MIC
Summary of the method: as §1

[15] = tested on: MRSA KS89; experiment: MIC, broth microdilution, MRSA KS89; format: cell-based, Staphylococcus aureus; settings: for MIC-fold improvement vs. vancomycin: MRSA KS8, ratio of MIC of vancomycin and MIC of analogue; for MIC: Staphylococcus aureus MRSA KS8, read-out: MIC
Summary of the method: as §1

[16] = tested on: MRSA KS1; experiment: MIC, broth microdilution, MRSA KS1; format: cell-based, Staphylococcus aureus; settings: for MIC-fold improvement vs. vancomycin: MRSA KS1, ratio of MIC of vancomycin and MIC of analogue; for MIC: Staphylococcus aureus MRSA KS1, read-out: MIC
Summary of the method: as §1

| Structure (SMILES) | MIC [1] | MIC-fold improvement vs. vancomycin [1] | MIC [2] | MIC-fold improvement vs. vancomycin [2] | MIC [3] | MIC-fold improvement vs. vancomycin [3] | MIC [4] | MIC-fold improvement vs. vancomycin [4] | MIC [5] | IC50 [6] | IC50 [7] | IC50 [8] | IC50 [9] | MIC [10] | MIC-fold improvement vs. vancomycin [10] | MIC [11] | MIC-fold improvement vs. vancomycin [11] | MIC [12] | MIC-fold improvement vs. vancomycin [12] | MIC-fold improvement vs. vancomycin [13] | also measured |
| --- | --- | --- | --- | --- | --- | --- | --- | --- | --- | --- | --- | --- | --- | --- | --- | --- | --- | --- | --- | --- | --- |
| CN[C@H](CC(C)C)C(=O)N[C@H]1C(=O)N[C@@H](CC(N)=O)C(=O)N[C@H]2C(=O)N[C@H]3C(=O)N[C@H](C(=O)N[C@H](C(=O)NCCNC(=O)/C=C/c4ccc(NS(=O)(=O)c5ccccc5)cc4)c4cc(O)cc(O)c4-c4cc3ccc4O)[C@H](O)c3ccc(c(Cl)c3)Oc3cc2cc(c3O[C@@H]2O[C@H](CO)[C@@H](O)[C@H](O)[C@H]2O[C@H]2C[C@](C)(N)[C@H](O)[C@H](C)O2)Oc2ccc(cc2Cl)[C@H]1O [Vanc-54] | 0.78 µM (≈ 1.39 µg/mL) | 2 | 12.5 µM (≈ 22.2 µg/mL) | 16 | 25 µM (≈ 44.4 µg/mL) | 16 | 25 µM (≈ 44.4 µg/mL) | 16 | 25 µM (≈ 44.4 µg/mL) | > 250 µM | ≥ 250 µM | 54 ± 29 µM | 185 µM | 0.39 µM (≈ 0.693 µg/mL) | 2 | 0.78 µM (≈ 1.39 µg/mL) | 8 | 0.39 µM (≈ 0.693 µg/mL) | 256 | 2 | MIC-fold improvement vs. vancomycin ([5]; VRE 37, ratio of MIC of vancomycin and MIC of analogue): 16; MIC [13]: 0.39 µM (≈ 0.693 µg/mL); MIC-fold improvement vs. vancomycin [14]: 2; MIC [14]: 0.39 µM (≈ 0.693 µg/mL); MIC-fold improvement vs. vancomycin [15]: 2; MIC [15]: 0.39 µM (≈ 0.693 µg/mL); MIC-fold improvement vs. vancomycin [16]: 2; MIC [16]: 0.39 µM (≈ 0.693 µg/mL) |
| CN[C@H](CC(C)C)C(=O)N[C@H]1C(=O)N[C@@H](CC(N)=O)C(=O)N[C@H]2C(=O)N[C@H]3C(=O)N[C@H](C(=O)N[C@H](C(=O)NCCNC(=O)/C=C/c4ccc(NS(=O)(=O)c5ccc(C)cc5)cc4)c4cc(O)cc(O)c4-c4cc3ccc4O)[C@H](O)c3ccc(c(Cl)c3)Oc3cc2cc(c3O[C@@H]2O[C@H](CO)[C@@H](O)[C@H](O)[C@H]2O[C@H]2C[C@](C)(N)[C@H](O)[C@H](C)O2)Oc2ccc(cc2Cl)[C@H]1O [Vanc-55] | 0.39 µM (≈ 0.698 µg/mL) | 4 | 6.25 µM (≈ 11.2 µg/mL) | 32 | 12.5 µM (≈ 22.4 µg/mL) | 32 | 12.5 µM (≈ 22.4 µg/mL) | 32 | 12.5 µM (≈ 22.4 µg/mL) | > 250 µM | ≥ 250 µM | 103 ± 10 µM | 201 µM | 0.78 µM (≈ 1.4 µg/mL) | 1 | 0.78 µM (≈ 1.4 µg/mL) | 8 | 0.39 µM (≈ 0.698 µg/mL) | 256 | 4 | MIC [13]: 0.20 µM (≈ 0.358 µg/mL); MIC-fold improvement vs. vancomycin [14]: 2; MIC [14]: 0.39 µM (≈ 0.698 µg/mL); MIC-fold improvement vs. vancomycin [15]: 2; MIC [15]: 0.39 µM (≈ 0.698 µg/mL); MIC-fold improvement vs. vancomycin [16]: 4; MIC [16]: 0.20 µM (≈ 0.358 µg/mL) |
